According to patent publication US12110295B2, “WD40 repeat domain protein 5 (WDR5) degradation/disruption compounds and methods of use” (Icahn School of Medicine at Mount Sinai, priority 2018, dated 2024):

Molecular target: WDR5 (Homo sapiens, UniProt P61964)
Assay: Screening of putative WDR5 degraders by Western blot in MV4;11 and/or MIAPACA2 cells
Type: cell-based
Parameters: After WDR5 degrader treatment, cells were collected and lysed; endogenous in cells; host or cells: MV4;11 and/or MIAPACA2
Conditions: summary of screening, FIGS. 6-10
Outline: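 MV4;11 (1×10^6/well) or MIAPACA2 (1×10^5/well) cells treated 18 h with compound at paired doses between 0.1 and 10 μM, DMSO as control. Total lysates immunoblotted for WDR5 with vinculin, tubulin or GAPDH loading controls; fluorescent secondary detection.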

SMILES	effective degradation of WDR5 in MV4;11 and/or MIAPACA2 cells
Cc1ncsc1-c1ccc(CNC(=O)[C@@H]2C[C@@H](O)CN2C(=O)[C@@H](NC(=O)COCCOCCOCCOCCOCC(=O)N2CCN(c3ncc(-c4cc(NC(=O)c5ccc(F)cc5C(F)(F)F)c(N5C[C@@H](C)N(C)[C@@H](C)C5)cc4F)cn3)CC2)C(C)(C)C)cc1 [XF078-106, (2S,4R)-1-((S)-2-(tert-butyl)-20-(4-(5-(2-fluoro-5-(4-fluoro-2-(trifluoromethyl)benzamido)-4-((3S,5R)-3,4,5-trimethylpiperazin-1-yl)phenyl)pyrimidin-2-yl)piperazin-1-yl)-4,20-dioxo-6,9,12,15,18-pentaoxa-3-azaicosanoyl)-4-hydroxy-N-(4-(4-methylthiazol-5-yl)benzyl)pyrrolidine-2-carboxamide]	able to effectively degrade WDR5
Cc1ncsc1-c1ccc(CNC(=O)[C@@H]2C[C@@H](O)CN2C(=O)[C@@H](NC(=O)CCCCC(=O)N2CCN(c3ncc(-c4cc(NC(=O)c5ccc(F)cc5C(F)(F)F)c(N5C[C@@H](C)N(C)[C@@H](C)C5)cc4F)cn3)CC2)C(C)(C)C)cc1 [XF078-110, (2S,4R)-1-((S)-2-(6-(4-(5-(2-fluoro-5-(4-fluoro-2-(trifluoromethyl)benzamido)-4-((3S,5R)-3,4,5-trimethylpiperazin-1-yl)phenyl)pyrimidin-2-yl)piperazin-1-yl)-6-oxohexanamido)-3,3-dimethylbutanoyl)-4-hydroxy-N-(4-(4-methylthiazol-5-yl)benzyl)pyrrolidine-2-carboxamide]	able to effectively degrade WDR5
Cc1ncsc1-c1ccc(CNC(=O)[C@@H]2C[C@@H](O)CN2C(=O)[C@@H](NC(=O)CCCCCC(=O)N2CCN(c3ncc(-c4cc(NC(=O)c5ccc(F)cc5C(F)(F)F)c(N5C[C@@H](C)N(C)[C@@H](C)C5)cc4F)cn3)CC2)C(C)(C)C)cc1 [XF078-111, (2S,4R)-1-((S)-2-(7-(4-(5-(2-fluoro-5-(4-fluoro-2-(trifluoromethyl)benzamido)-4-((3S,5R)-3,4,5-trimethylpiperazin-1-yl)phenyl)pyrimidin-2-yl)piperazin-1-yl)-7-oxoheptanamido)-3,3-dimethylbutanoyl)-4-hydroxy-N-(4-(4-methylthiazol-5-yl)benzyl)pyrrolidine-2-carboxamide]	able to effectively degrade WDR5
Cc1ncsc1-c1ccc(CNC(=O)[C@@H]2C[C@@H](O)CN2C(=O)[C@@H](NC(=O)CCCCCCC(=O)N2CCN(c3ncc(-c4cc(NC(=O)c5ccc(F)cc5C(F)(F)F)c(N5C[C@@H](C)N(C)[C@@H](C)C5)cc4F)cn3)CC2)C(C)(C)C)cc1 [XF078-112, (2S,4R)-1-((S)-2-(8-(4-(5-(2-fluoro-5-(4-fluoro-2-(trifluoromethyl)benzamido)-4-((3S,5R)-3,4,5-trimethylpiperazin-1-yl)phenyl)pyrimidin-2-yl)piperazin-1-yl)-8-oxooctanamido)-3,3-dimethylbutanoyl)-4-hydroxy-N-(4-(4-methylthiazol-5-yl)benzyl)pyrrolidine-2-carboxamide]	able to effectively degrade WDR5
Cc1ncsc1-c1ccc(CNC(=O)[C@@H]2C[C@@H](O)CN2C(=O)[C@@H](NC(=O)CCCCCCCC(=O)N2CCN(c3ncc(-c4cc(NC(=O)c5ccc(F)cc5C(F)(F)F)c(N5C[C@@H](C)N(C)[C@@H](C)C5)cc4F)cn3)CC2)C(C)(C)C)cc1 [XF078-113, (2S,4R)-1-((S)-2-(9-(4-(5-(2-fluoro-5-(4-fluoro-2-(trifluoromethyl)benzamido)-4-((3S,5R)-3,4,5-trimethylpiperazin-1-yl)phenyl)pyrimidin-2-yl)piperazin-1-yl)-9-oxononanamido)-3,3-dimethylbutanoyl)-4-hydroxy-N-(4-(4-methylthiazol-5-yl)benzyl)pyrrolidine-2-carboxamide]	able to effectively degrade WDR5
Cc1ncsc1-c1ccc(CNC(=O)[C@@H]2C[C@@H](O)CN2C(=O)[C@@H](NC(=O)CCCCCCCCC(=O)N2CCN(c3ncc(-c4cc(NC(=O)c5ccc(F)cc5C(F)(F)F)c(N5C[C@@H](C)N(C)[C@@H](C)C5)cc4F)cn3)CC2)C(C)(C)C)cc1 [XF078-114, (2S,4R)-1-((S)-2-(10-(4-(5-(2-fluoro-5-(4-fluoro-2-(trifluoromethyl)benzamido)-4-((3S,5R)-3,4,5-trimethylpiperazin-1-yl)phenyl)pyrimidin-2-yl)piperazin-1-yl)-10-oxodecanamido)-3,3-dimethylbutanoyl)-4-hydroxy-N-(4-(4-methylthiazol-5-yl)benzyl)pyrrolidine-2-carboxamide]	able to effectively degrade WDR5
Cc1ncsc1-c1ccc(CNC(=O)[C@@H]2C[C@@H](O)CN2C(=O)[C@@H](NC(=O)CCCCCCCCCC(=O)N2CCN(c3ncc(-c4cc(NC(=O)c5ccc(F)cc5C(F)(F)F)c(N5C[C@@H](C)N(C)[C@@H](C)C5)cc4F)cn3)CC2)C(C)(C)C)cc1 [XF078-115, (2S,4R)-1-((S)-2-(11-(4-(5-(2-fluoro-5-(4-fluoro-2-(trifluoromethyl)benzamido)-4-((3S,5R)-3,4,5-trimethylpiperazin-1-yl)phenyl)pyrimidin-2-yl)piperazin-1-yl)-11-oxoundecanamido)-3,3-dimethylbutanoyl)-4-hydroxy-N-(4-(4-methylthiazol-5-yl)benzyl)pyrrolidine-2-carboxamide]	able to effectively degrade WDR5
C[C@@H]1CN(c2cc(F)c(-c3cnc(N4CCN(C(=O)CCCCCCNc5cccc6c5C(=O)N(C5CCC(=O)NC5=O)C6=O)CC4)nc3)cc2NC(=O)c2ccc(F)cc2C(F)(F)F)C[C@H](C)N1C (stereo partly drawn) [XF078-121, N-(5-(2-(4-(7-((2-(2,6-dioxopiperidin-3-yl)-1,3-dioxoisoindolin-4-yl)amino)heptanoyl)piperazin-1-yl)pyrimidin-5-yl)-4-fluoro-2-((3S,5R)-3,4,5-trimethylpiperazin-1-yl)phenyl)-4-fluoro-2-(trifluoromethyl)benzamide]	able to effectively degrade WDR5
C[C@@H]1CN(c2cc(F)c(-c3cnc(N4CCN(C(=O)CCOCCOCCOCCNc5cccc6c5C(=O)N(C5CCC(=O)NC5=O)C6=O)CC4)nc3)cc2NC(=O)c2ccc(F)cc2C(F)(F)F)C[C@H](C)N1C (stereo partly drawn) [XF078-125, N-(5-(2-(4-(3-(2-(2-(2-((2-(2,6-dioxopiperidin-3-yl)-1,3-dioxoisoindolin-4-yl)amino)ethoxy)ethoxy)ethoxy)propanoyl)piperazin-1-yl)pyrimidin-5-yl)-4-fluoro-2-((3S,5R)-3,4,5-trimethylpiperazin-1-yl)phenyl)-4-fluoro-2-(trifluoromethyl)benzamide]	able to effectively degrade WDR5
C[C@@H]1CN(c2cc(F)c(-c3cnc(N4CCN(C(=O)CCOCCOCCOCCOCCNc5cccc6c5C(=O)N(C5CCC(=O)NC5=O)C6=O)CC4)nc3)cc2NC(=O)c2ccc(F)cc2C(F)(F)F)C[C@H](C)N1C (stereo partly drawn) [XF078-126, N-(5-(2-(4-(1-((2-(2,6-dioxopiperidin-3-yl)-1,3-dioxoisoindolin-4-yl)amino)-3,6,9,12-tetraoxapentadecan-15-oyl)piperazin-1-yl)pyrimidin-5-yl)-4-fluoro-2-((3S,5R)-3,4,5-trimethylpiperazin-1-yl)phenyl)-4-fluoro-2-(trifluoromethyl)benzamide]	able to effectively degrade WDR5
C[C@@H]1CN(c2cc(F)c(-c3cnc(N4CCN(C(=O)CCOCCOCCOCCOCCOCCNc5cccc6c5C(=O)N(C5CCC(=O)NC5=O)C6=O)CC4)nc3)cc2NC(=O)c2ccc(F)cc2C(F)(F)F)C[C@H](C)N1C (stereo partly drawn) [XF078-127, N-(5-(2-(4-(1-((2-(2,6-dioxopiperidin-3-yl)-1,3-dioxoisoindolin-4-yl)amino)-3,6,9,12,15-pentaoxaoctadecan-18-oyl)piperazin-1-yl)pyrimidin-5-yl)-4-fluoro-2-((3S,5R)-3,4,5-trimethylpiperazin-1-yl)phenyl)-4-fluoro-2-(trifluoromethyl)benzamide]	able to effectively degrade WDR5
Cc1ncsc1-c1ccc(CNC(=O)[C@@H]2C[C@@H](O)CN2C(=O)[C@@H](NC(=O)COCC(=O)N2CCN(Cc3cnc(N4CC=C(c5cc(NC(=O)c6c[nH]c(=O)cc6C(F)(F)F)c(N6C[C@@H](C)N(C)[C@@H](C)C6)cc5F)CC4)nc3)CC2)C(C)(C)C)cc1 [XF078-132, N-(4-fluoro-5-(1-(5-((4-(2-(2-(((S)-1-((2S,4R)-4-hydroxy-2-((4-(4-methylthiazol-5-yl)benzyl)carbamoyl)pyrrolidin-1-yl)-3,3-dimethyl-1-oxobutan-2-yl)amino)-2-oxoethoxy)acetyl)piperazin-1-yl)methyl)pyrimidin-2-yl)-1,2,3,6-tetrahydropyridin-4-yl)-2-((3S,5R)-3,4,5-trimethylpiperazin-1-yl)phenyl)-6-oxo-4-(trifluoromethyl)-1,6-dihydropyridine-3-carboxamide]	able to effectively degrade WDR5
Cc1ncsc1-c1ccc(CNC(=O)[C@@H]2C[C@@H](O)CN2C(=O)[C@@H](NC(=O)CCOCCC(=O)N2CCN(Cc3cnc(N4CC=C(c5cc(NC(=O)c6c[nH]c(=O)cc6C(F)(F)F)c(N6C[C@@H](C)N(C)[C@@H](C)C6)cc5F)CC4)nc3)CC2)C(C)(C)C)cc1 [XF078-133, N-(4-fluoro-5-(1-(5-((4-(3-(3-(((S)-1-((2S,4R)-4-hydroxy-2-((4-(4-methylthiazol-5-yl)benzyl)carbamoyl)pyrrolidin-1-yl)-3,3-dimethyl-1-oxobutan-2-yl)amino)-3-oxopropoxy)propanoyl)piperazin-1-yl)methyl)pyrimidin-2-yl)-1,2,3,6-tetrahydropyridin-4-yl)-2-((3S,5R)-3,4,5-trimethylpiperazin-1-yl)phenyl)-6-oxo-4-(trifluoromethyl)-1,6-dihydropyridine-3-carboxamide]	able to effectively degrade WDR5
